Data: patent publication US9522888B2, “Substituted bicyclic compounds” (BRISTOL-MYERS SQUIBB COMPANY, priority 2014, dated 2016)
Entries after “also recorded” stand apart in the source; their conditions may differ.

Tests used:
[1] = tested on: circulating lymphocytes; assay: Blood Lymphocyte Reduction (BLR) assay in mouse; type: in vivo, BALB/c mice; conditions: oral; for lymphocyte reduction: mice, 24 hours post dose
Description: (§1) Blood Lymphocyte Reduction (BLR) Assay in Rodent:
(§2) Lewis rats or BALB/c mice were dosed orally with vehicle alone (polyethylene glycol 300, “PEG300”) or with test compounds. Compounds were dosed as a solution or suspension in the vehicle, adjusted to reflect the free amount of test article in the event that salt forms are utilized. Blood was drawn at 24 hr and blood lymphocyte counts were determined on an ADVIA 120 Hematology Analyzer (Siemens Healthcare Diagnostics). The results were measured as a reduction in the percentage of circulating lymphocytes as compared to the vehicle treated group at the time of measurement. The results represent the average results of all animals within each treatment group (n=2-4).

[2] = tested on: circulating lymphocytes; assay: Blood Lymphocyte Reduction (BLR) assay in rat; type: in vivo, Lewis rats; conditions: oral; for Percent reduction vs. control at 24 hr post-dose: blood lymphocytes; for lymphocyte reduction: rodent BLR assay, 24 hours post-dose, versus vehicle treated group
Description: as §1, §2

[3] = tested on: adjuvant-induced arthritis, hind paw volume; assay: Rat Adjuvant Induced Arthritis Assay (AA); type: in vivo, Male Lewis rats; conditions: Lewis rat; for paw swelling (mL) on day 20, Mean / paw swelling (mL) on day 22, Mean: once daily oral prophylactic; for inhibition of disease progression as measured by reduced paw swelling: prophylactic oral dosing regimen, result in words
Description: Rat Adjuvant Induced Arthritis Assay (AA) The rat adjuvant-induced arthritis model is an animal model for human rheumatoid arthritis. Male Lewis rats (150-175 g; Harlan, n=8 treatment group) were immunized at the base of the tail with 100 μl of 10 mg/ml freshly ground Mycobacterium butyricum (Difco Laboratories) in incomplete Freund's adjuvant (sigma). Animals were dosed once daily with the test article (as a solution or suspension in the vehicle) or vehicle alone (polyethylene glycol 300, “PEG300”) starting from the day of immunization. The volumes of their hind paws were measured in a water displacement plethysmometer (Ugo Basile, Italy). The baseline paw measurements were taken before onset of the disease (between day 7 to day 10). […] All procedures involving animals were reviewed and approved by the Institutional Animal Care Use Committee.

[4] = tested on: MOG35-55 induced EAE, clinical score; assay: Mouse Experimental Autoimmune Encephalomyelitis Assay (EAE); type: in vivo, C57BL/6 mice; conditions: for inhibition of disease progression as measured by clinical scores / Clinical scores on day 21 (Mean): C57Bl/6 mice; for inhibition of disease progression as measured by clinical scores: prophylactic oral dosing regimen, result in words; for Clinical scores on day 21 (Mean): mouse EAE, prophylactic oral dosing; for Clinical scores on day 22, Mean: C57BL/6 mice, prophylactic oral
[5] = tested on: guinea pig myelin basic protein induced EAE, clinical score; assay: Rat Experimental Autoimmune Encephalomyelitis (EAE); type: in vivo, Female Lewis rats; conditions: Lewis rat; for Clinical Score on Day 11 (Mean): rat EAE, prophylactic oral dosing
Description: Rat Experimental Autoimmune Encephalomyelitis (EAE):
Female Lewis rats (150-200 g; Harlan) were immunized at the base of the tail with 0.1 ml of a complete Freund's adjuvant emulsion containing 0.5 mg/mL guinea pig myelin basic protein (Genemed Synthesis) and 2 mg/mL Mycobacterium butyricum (Difco). Beginning on Day 7, rats (n=11/group) were scored individually at least 3×/wk according to the following scheme:
Average clinical scores were calculated for each treatment group on each day of assessment.

[6] = tested on: anti-dsDNA antibodies; assay: MRL/lpr lupus model: anti-dsDNA antibody titers (ELISA); type: in vivo, Male MRL/lpr mice; conditions: MRL/lpr mice; for Anti-dsDNA antibody titers (23 weeks of age) (Mean): ratio to pooled MRL/lpr immune serum titer
Description: (§3) MRL/lpr is a spontaneous model of lupus. Male MRL/lpr mice (Jackson Laboratory) at the age of 12-14 weeks were enrolled for the study (N=12). Mice were dosed p.o. daily with vehicle (18.4% (w/v) hydroxypropyl-b-cyclodextrin in 13.8 mM citric acid) or with Example 681 at 0.06, 0.3, 1.5 mg/kg. Mice were bled every other week for anti-dsDNA antibodies measured by ELISA using pooled serum from diseased MRL/lpr mice as a positive comparator in each assay. The data were expressed in arbitrary units as a ratio of the titer of the test serum to the titer of the pooled MRL/lpr immune serum.

[7] = tested on: kidney histology score; assay: MRL/lpr lupus model: kidney histological analysis; type: in vivo, Male MRL/lpr mice; conditions: MRL/lpr mice; for Kidney Histology (nephritis) 23 weeks of age (Mean): total score, highest possible score=36
Description: as §3
At the end of study, one kidney was collected into 10% neutral buffered formalin and ZincTris fixatives. Fixed tissues were processed into paraffin blocks, sectioned at 3 μm, and stained with H&E or PASH. Kidney sections were graded using following criteria: Glomerular Damage: 1. Mesangial matrix thickening, cell proliferation, 2. Crescent formation, cellular deposits/casts in Bowman's space, 3. Cellular infiltration, mononuclear cells in glomerular tufts, 4. Fibrosis of Bowman's capsule. Tubular damage: 1. Infiltration of mononuclear cells, 2. Severity of tubular damage, 3. Protein casts. Tubulo-interstitial damage: 1. Fibrosis, 2. Infiltration of mononuclear cells. Each subcategory was assigned a score from 0-4, with the scores for glomerular indices representing the mean from 20 glomeruli per kidney. The total score for each mouse was the sum of the above 9 subcategories, with the highest possible score=36.

[8] = p.o. daily 0.06, 0.3, 1.5 mg/kg, result in words

CCCCCOc1ccc2cc([C@@H]3CC[C@](N)(CO)C3)ccc2c1 [Comparative Compound 703, reference compound]
lymphocyte reduction ([1]; 1.0 mg/kg): 52%
Mouse Blood Lymphocyte Reduction Assay at 24 hr post-dose Percent reduction vs. control ([1]; 1.0 mg/kg): 52%

COCCCCC[C@H]1CCc2cc([C@H]3CC[C@](N)(CO)C3)ccc2C1 [Example 672, ((1R,3S)-1-amino-3-((S)-6-(5-methoxypentyl)-5,6,7,8-tetrahydronaphthalen-2-yl)cyclopentyl)methanol]
Percent reduction vs. control at 24 hr post-dose ([2]; 0.1 mg/kg): 47%
paw swelling (mL) on day 20, Mean ([3]; 0.1 mg/kg): 2.60 mL
paw swelling (mL) on day 20, Mean ([3]; 0.3 mg/kg): 1.46 mL
paw swelling (mL) on day 20, Mean ([3]; 1.0 mg/kg): 0.17 mL
inhibition of disease progression as measured by reduced paw swelling [3]: showed inhibition of disease progression

CCOCCC[C@H]1CCc2cc([C@H]3CC[C@](N)(CO)C3)ccc2C1 [Example 678, ((1R,3S)-1-amino-3-((R)-6-(3-ethoxypropyl)-5,6,7,8-tetrahydronaphthalen-2-yl)cyclopentyl)methanol]
Percent reduction vs. control at 24 hr post-dose ([2]; 0.1 mg/kg): 16%
Percent reduction vs. control at 24 hr post-dose ([2]; 0.3 mg/kg): 53%
lymphocyte reduction ([2]; 0.1 mg/kg): 16%

CCOCCC[C@@H]1CCc2cc([C@H]3CC[C@](N)(CO)C3)ccc2C1 [Example 679, ((1R,3S)-1-amino-3-((S)-6-(3-ethoxypropyl)-5,6,7,8-tetrahydronaphthalen-2-yl)cyclopentyl)methanol]
Percent reduction vs. control at 24 hr post-dose ([2]; 0.1 mg/kg): 65%
lymphocyte reduction ([2]; 0.1 mg/kg): 65%
lymphocyte reduction ([1]; 0.5 mg/kg): 59%
Mouse Blood Lymphocyte Reduction Assay at 24 hr post-dose Percent reduction vs. control ([1]; 0.5 mg/kg): 59%
paw swelling (mL) on day 22, Mean ([3]; 0.1 mg/kg): 1.55 mL
paw swelling (mL) on day 22, Mean ([3]; 0.5 mg/kg): 0.36 mL
paw swelling (mL) on day 22, Mean ([3]; 2.50 mg/kg): 0.00 mL
inhibition of disease progression as measured by reduced paw swelling [3]: showed inhibition of disease progression
inhibition of disease progression as measured by clinical scores [4]: showed inhibition of disease progression; also recorded: inhibit disease progression
Clinical scores on day 21 (Mean) ([4]; 0.6 mg/kg): 2.9
Clinical scores on day 21 (Mean) ([4]; 3 mg/kg): 1.8
Clinical scores on day 21 (Mean) ([4]; 15 mg/kg): 1.3
inhibition of disease progression as measured by reduced clinical scores ([5]; prophylactic oral dosing regimen, result in words): showed inhibition of disease progression
Clinical Score on Day 11 (Mean) ([5]; 0.3 mg/kg): 0.36
Clinical Score on Day 11 (Mean) ([5]; 1.0 mg/kg): 0.09
Clinical Score on Day 11 (Mean) ([5]; 3.0 mg/kg): 0.02

COc1ccccc1CC[C@@H]1CCc2cc([C@H]3CC[C@](N)(CO)C3)ccc2C1 [Example 681, ((1R,3S)-1-amino-3-((S)-6-(2-methoxyphenethyl)-5,6,7,8-tetrahydronaphthalen-2-yl)cyclopentyl)methanol]
Percent reduction vs. control at 24 hr post-dose ([2]; 0.1 mg/kg): 53%
lymphocyte reduction ([2]; 0.1 mg/kg): 53%
lymphocyte reduction ([1]; 0.5 mg/kg): 85%
Mouse Blood Lymphocyte Reduction Assay at 24 hr post-dose Percent reduction vs. control ([1]; 0.5 mg/kg): 85%
Clinical scores on day 22, Mean ([4]; 0.1 mg/kg): 3.1
Clinical scores on day 22, Mean ([4]; 0.5 mg/kg): 1.1
Clinical scores on day 22, Mean ([4]; 2 mg/kg): 0.8
inhibition of disease progression as measured by clinical scores [4]: showed inhibition of disease progression; also recorded: inhibit disease progression
Anti-dsDNA antibody titers (23 weeks of age) (Mean) ([6]; 0.06 mg/kg p.o. daily): 1.861 arbitrary units
Anti-dsDNA antibody titers (23 weeks of age) (Mean) ([6]; 0.3 mg/kg p.o. daily): 0.978 arbitrary units
Anti-dsDNA antibody titers (23 weeks of age) (Mean) ([6]; 1.5 mg/kg p.o. daily): 1.023 arbitrary units
inhibition of disease progression as measured by anti-dsDNA titers [6, 8]: showed inhibition of disease progression
Kidney Histology (nephritis) 23 weeks of age (Mean) ([7]; 0.06 mg/kg p.o. daily): 10.13
Kidney Histology (nephritis) 23 weeks of age (Mean) ([7]; 0.3 mg/kg p.o. daily): 10.00
Kidney Histology (nephritis) 23 weeks of age (Mean) ([7]; 1.5 mg/kg p.o. daily): 12.63
inhibition of disease progression as measured by kidney histology [7, 8]: showed inhibition of disease progression

COc1ccccc1CC[C@H]1CCc2cc([C@H]3CC[C@](N)(CO)C3)ccc2C1 [Example 682, ((1R,3S)-1-amino-3-((R)-6-(2-methoxyphenethyl)-5,6,7,8-tetrahydronaphthalen-2-yl)cyclopentyl)methanol]
Percent reduction vs. control at 24 hr post-dose ([2]; 0.1 mg/kg): 17%
Percent reduction vs. control at 24 hr post-dose ([2]; 2.0 mg/kg): 83%
lymphocyte reduction ([2]; 0.1 mg/kg): 17%

COc1cccc(OC[C@@H]2CCc3cc([C@H]4CC[C@](N)(CO)C4)ccc3C2)c1 [Example 684, ((1R,3S)-1-amino-3-((R)-6-((3-methoxyphenoxy)methyl)-5,6,7,8-tetrahydronaphthalen-2-yl)cyclopentyl)methanol]
Percent reduction vs. control at 24 hr post-dose ([2]; 0.05 mg/kg): 72%
lymphocyte reduction ([1]; 0.5 mg/kg): 79%
Mouse Blood Lymphocyte Reduction Assay at 24 hr post-dose Percent reduction vs. control ([1]; 0.5 mg/kg): 79%

COc1cccc(OC[C@H]2CCc3cc([C@H]4CC[C@](N)(CO)C4)ccc3C2)c1 [Example 685, ((1R,3S)-1-amino-3-((S)-6-((3-methoxyphenoxy)methyl)-5,6,7,8-tetrahydronaphthalen-2-yl)cyclopentyl)methanol]
Percent reduction vs. control at 24 hr post-dose ([2]; 0.1 mg/kg): 55%
